Measurements published in paper PMC4685510, “A Cell Biologist’s Field Guide to Aurora Kinase Inhibitors” (Frontiers in Oncology, 2015).
Where two headings read alike, the source gives them in different places.

Key:
Experiment in all cases: biochemical
Type in all cases: biochemical
[1] = biological target: 363 human kinases (including Aurora A/B/C) (Homo sapiens, UniProt Q8TDX7); conditions: NEK7
From the text: (§1) However, the Aurora A/B selectivity ratios derived from our in vitro and in vivo data can be compared to prioritize inhibitors.

[2] = biological target: 363 human kinases (including Aurora A/B/C) (Homo sapiens, UniProt P49840); conditions: GSK3a
From the text: as §1

[3] = biological target: 363 human kinases (including Aurora A/B/C) (Homo sapiens, UniProt Q9UKE5); conditions: TNIK
Sequence of 363 human kinases (including Aurora A/B/C) (Homo sapiens, UniProt Q9UKE5) (Q9UKE5 whole entry): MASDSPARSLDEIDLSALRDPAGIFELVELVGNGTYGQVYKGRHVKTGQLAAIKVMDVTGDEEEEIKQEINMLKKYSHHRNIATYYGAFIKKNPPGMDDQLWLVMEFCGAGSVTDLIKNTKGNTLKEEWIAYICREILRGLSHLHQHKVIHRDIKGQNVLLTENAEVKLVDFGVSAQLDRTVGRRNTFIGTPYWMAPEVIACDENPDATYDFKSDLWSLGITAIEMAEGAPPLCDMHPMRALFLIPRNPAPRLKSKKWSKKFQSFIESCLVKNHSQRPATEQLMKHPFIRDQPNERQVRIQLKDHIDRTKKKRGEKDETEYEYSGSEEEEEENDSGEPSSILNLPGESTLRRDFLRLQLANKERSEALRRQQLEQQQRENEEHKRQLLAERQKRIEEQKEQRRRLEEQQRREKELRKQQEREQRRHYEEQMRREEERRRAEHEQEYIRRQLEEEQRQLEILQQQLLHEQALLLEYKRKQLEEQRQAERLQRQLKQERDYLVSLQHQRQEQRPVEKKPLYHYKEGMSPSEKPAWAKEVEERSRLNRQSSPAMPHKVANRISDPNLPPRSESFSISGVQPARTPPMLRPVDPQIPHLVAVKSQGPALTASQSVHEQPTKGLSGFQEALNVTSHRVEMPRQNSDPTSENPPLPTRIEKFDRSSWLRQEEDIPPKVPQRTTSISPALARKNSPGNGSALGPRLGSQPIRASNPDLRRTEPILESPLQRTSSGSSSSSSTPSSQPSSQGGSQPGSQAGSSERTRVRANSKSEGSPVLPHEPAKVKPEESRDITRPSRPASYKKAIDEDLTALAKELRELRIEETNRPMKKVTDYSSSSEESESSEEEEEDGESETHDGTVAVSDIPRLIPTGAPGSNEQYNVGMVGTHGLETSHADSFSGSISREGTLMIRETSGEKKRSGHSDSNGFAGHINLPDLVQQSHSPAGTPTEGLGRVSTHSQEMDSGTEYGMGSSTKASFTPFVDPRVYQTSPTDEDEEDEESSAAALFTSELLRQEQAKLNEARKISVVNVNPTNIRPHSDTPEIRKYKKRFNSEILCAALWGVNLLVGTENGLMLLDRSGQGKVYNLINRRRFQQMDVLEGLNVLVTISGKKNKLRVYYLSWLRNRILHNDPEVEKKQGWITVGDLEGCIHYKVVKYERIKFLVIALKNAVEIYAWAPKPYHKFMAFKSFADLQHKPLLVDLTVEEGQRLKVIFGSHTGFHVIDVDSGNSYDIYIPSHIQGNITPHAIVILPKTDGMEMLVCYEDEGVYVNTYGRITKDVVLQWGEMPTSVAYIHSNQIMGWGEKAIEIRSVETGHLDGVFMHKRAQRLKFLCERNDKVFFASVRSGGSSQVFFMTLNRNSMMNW
From the text: as §1

[4] = biological target: 363 human kinases (including Aurora A/B/C) (Homo sapiens, UniProt Q00535); conditions: for % Enzyme Activity (relative to DMSO controls) / remaining activity at 0.5 µM: 500 nM; for remaining activity at 0.5 µM / remaining activity at 0.1 µM: read-out: % Enzyme Activity (relative to DMSO controls); for remaining activity at 0.1 µM: 100 nM
Sequence of 363 human kinases (including Aurora A/B/C) (Homo sapiens, UniProt Q00535) (Q00535 whole entry): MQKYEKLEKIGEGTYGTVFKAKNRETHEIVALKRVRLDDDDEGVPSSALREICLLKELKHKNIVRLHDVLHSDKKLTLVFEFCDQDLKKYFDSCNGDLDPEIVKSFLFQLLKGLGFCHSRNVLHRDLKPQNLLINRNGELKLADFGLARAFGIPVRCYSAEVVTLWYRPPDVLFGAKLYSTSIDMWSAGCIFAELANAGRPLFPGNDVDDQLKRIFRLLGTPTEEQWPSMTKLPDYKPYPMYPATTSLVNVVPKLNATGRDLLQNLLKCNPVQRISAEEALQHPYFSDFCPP
From the text: as §1

[5] = biological target: T1, 363 human kinases (including Aurora A/B/C) (Homo sapiens, UniProt Q8TF76); conditions: Haspin
T1 sequence (Q8TF76 1-798): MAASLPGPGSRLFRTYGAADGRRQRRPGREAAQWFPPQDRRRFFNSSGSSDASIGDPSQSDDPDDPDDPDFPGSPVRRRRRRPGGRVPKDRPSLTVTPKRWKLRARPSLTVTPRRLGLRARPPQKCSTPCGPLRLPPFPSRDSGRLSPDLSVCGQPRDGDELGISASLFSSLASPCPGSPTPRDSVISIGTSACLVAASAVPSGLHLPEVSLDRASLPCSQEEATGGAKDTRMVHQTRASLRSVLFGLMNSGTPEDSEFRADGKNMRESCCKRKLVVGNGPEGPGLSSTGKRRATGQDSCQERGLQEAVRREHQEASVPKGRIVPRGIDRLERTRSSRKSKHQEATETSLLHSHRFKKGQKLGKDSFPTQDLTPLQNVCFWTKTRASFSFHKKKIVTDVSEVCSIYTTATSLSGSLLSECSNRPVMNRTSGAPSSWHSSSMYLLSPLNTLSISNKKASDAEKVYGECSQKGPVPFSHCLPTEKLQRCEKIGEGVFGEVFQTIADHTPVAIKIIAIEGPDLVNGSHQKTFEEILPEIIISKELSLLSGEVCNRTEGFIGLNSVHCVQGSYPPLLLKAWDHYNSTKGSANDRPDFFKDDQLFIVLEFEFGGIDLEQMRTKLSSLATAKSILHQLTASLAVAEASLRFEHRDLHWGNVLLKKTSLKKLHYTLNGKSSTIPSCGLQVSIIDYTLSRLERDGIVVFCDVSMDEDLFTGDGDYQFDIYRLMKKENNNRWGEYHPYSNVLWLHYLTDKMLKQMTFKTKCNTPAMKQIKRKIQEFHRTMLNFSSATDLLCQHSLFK
From the text: as §1

[6] = biological target: 363 human kinases (including Aurora A/B/C) (Homo sapiens, UniProt Q06187); conditions: BTK, [ATP] 50 µM
Sequence of 363 human kinases (including Aurora A/B/C) (Homo sapiens, UniProt Q06187) (Q06187 whole entry): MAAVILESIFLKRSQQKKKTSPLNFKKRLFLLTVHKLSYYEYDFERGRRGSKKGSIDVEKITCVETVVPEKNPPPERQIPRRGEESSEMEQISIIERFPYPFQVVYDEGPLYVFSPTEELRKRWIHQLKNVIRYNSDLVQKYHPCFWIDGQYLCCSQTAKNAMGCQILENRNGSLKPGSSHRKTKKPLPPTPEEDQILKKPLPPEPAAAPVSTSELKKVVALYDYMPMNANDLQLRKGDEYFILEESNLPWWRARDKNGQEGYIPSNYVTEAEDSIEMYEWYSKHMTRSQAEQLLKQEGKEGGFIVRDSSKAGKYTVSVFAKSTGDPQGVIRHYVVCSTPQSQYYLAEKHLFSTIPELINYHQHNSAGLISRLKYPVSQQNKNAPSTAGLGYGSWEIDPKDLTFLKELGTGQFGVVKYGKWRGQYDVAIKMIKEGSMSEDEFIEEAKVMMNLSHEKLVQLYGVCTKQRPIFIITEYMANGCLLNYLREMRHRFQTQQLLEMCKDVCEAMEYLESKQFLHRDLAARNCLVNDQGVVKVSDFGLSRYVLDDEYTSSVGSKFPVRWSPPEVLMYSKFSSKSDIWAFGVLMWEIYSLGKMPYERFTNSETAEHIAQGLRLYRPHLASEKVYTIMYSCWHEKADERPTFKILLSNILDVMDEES
From the text: as §1

[7] = biological target: T2, 363 human kinases (including Aurora A/B/C) (Homo sapiens, UniProt Q14164); conditions: IKKe/IKBKE
T2 sequence (Q14164 1-716): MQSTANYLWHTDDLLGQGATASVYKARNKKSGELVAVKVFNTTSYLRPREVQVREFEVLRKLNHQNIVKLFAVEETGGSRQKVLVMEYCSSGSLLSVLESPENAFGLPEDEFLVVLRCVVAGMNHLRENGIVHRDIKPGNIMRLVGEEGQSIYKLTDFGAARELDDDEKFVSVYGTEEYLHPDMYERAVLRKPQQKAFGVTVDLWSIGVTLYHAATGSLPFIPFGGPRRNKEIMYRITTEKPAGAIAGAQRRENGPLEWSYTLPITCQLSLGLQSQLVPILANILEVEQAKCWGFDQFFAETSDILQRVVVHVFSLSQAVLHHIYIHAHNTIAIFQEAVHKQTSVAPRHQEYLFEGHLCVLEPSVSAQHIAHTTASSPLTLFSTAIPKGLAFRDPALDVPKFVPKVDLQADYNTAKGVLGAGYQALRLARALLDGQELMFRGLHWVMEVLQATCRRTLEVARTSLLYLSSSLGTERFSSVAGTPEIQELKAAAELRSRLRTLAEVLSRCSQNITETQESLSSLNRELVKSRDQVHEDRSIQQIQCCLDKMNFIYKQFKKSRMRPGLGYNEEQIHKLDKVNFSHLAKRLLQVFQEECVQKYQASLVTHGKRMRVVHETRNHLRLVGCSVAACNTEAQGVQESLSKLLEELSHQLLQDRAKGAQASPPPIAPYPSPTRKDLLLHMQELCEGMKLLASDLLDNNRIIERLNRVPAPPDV
From the text: as §1

[8] = biological target: 363 human kinases (including Aurora A/B/C) (Homo sapiens, UniProt P09619); conditions: PDGFRb
From the text: as §1

[9] = biological target: 363 human kinases (including Aurora A/B/C) (Homo sapiens, UniProt Q14289); conditions: PYK2
Sequence of 363 human kinases (including Aurora A/B/C) (Homo sapiens, UniProt Q14289) (Q14289 whole entry): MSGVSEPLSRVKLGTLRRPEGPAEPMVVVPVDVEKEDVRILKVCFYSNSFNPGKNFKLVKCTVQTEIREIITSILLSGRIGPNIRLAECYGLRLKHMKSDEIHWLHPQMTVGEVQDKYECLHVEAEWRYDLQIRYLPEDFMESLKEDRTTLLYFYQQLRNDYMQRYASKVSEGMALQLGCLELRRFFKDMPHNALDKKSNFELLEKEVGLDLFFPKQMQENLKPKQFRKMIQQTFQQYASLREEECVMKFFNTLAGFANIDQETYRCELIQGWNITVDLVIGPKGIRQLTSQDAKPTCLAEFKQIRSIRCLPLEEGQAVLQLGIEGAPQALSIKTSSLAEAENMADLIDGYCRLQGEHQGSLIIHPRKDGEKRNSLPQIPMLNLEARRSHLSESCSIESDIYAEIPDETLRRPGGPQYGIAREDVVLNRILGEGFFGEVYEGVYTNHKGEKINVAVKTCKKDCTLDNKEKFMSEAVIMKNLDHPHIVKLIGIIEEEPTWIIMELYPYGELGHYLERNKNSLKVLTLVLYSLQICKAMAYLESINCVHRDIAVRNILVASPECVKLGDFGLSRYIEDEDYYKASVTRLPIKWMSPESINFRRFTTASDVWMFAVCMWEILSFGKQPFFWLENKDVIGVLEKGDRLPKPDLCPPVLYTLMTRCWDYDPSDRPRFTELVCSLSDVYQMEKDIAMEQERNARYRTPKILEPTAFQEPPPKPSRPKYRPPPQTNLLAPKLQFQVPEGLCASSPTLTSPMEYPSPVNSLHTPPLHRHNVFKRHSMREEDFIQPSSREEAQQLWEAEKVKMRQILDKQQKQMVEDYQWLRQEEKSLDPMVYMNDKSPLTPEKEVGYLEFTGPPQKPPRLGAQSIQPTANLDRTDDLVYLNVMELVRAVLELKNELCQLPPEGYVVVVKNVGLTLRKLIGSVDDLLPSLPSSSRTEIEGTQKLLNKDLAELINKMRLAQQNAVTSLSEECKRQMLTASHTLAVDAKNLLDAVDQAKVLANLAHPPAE
From the text: as §1

[10] = biological target: 363 human kinases (including Aurora A/B/C) (Homo sapiens, UniProt Q08345); conditions: DDR1, [ATP] 100 µM
From the text: as §1

[11] = biological target: 363 human kinases (including Aurora A/B/C) (Homo sapiens, UniProt Q13177); conditions: PAK2
From the text: as §1

[12] = biological target: 363 human kinases (including Aurora A/B/C) (Homo sapiens, UniProt P07948); conditions: LYN
From the text: as §1

[13] = biological target: 363 human kinases (including Aurora A/B/C) (Homo sapiens, UniProt P24941); conditions: for % Enzyme Activity (relative to DMSO controls) / remaining activity at 0.5 µM: 500 nM; for remaining activity at 0.5 µM / remaining activity at 0.1 µM: read-out: % Enzyme Activity (relative to DMSO controls); for remaining activity at 0.1 µM: 100 nM
From the text: as §1

[14] = biological target: 363 human kinases (including Aurora A/B/C) (Homo sapiens, UniProt Q9BYP7); conditions: WNK3
From the text: as §1

[15] = biological target: 363 human kinases (including Aurora A/B/C) (Homo sapiens, UniProt P07949); conditions: RET
Sequence of 363 human kinases (including Aurora A/B/C) (Homo sapiens, UniProt P07949) (P07949 29-1114): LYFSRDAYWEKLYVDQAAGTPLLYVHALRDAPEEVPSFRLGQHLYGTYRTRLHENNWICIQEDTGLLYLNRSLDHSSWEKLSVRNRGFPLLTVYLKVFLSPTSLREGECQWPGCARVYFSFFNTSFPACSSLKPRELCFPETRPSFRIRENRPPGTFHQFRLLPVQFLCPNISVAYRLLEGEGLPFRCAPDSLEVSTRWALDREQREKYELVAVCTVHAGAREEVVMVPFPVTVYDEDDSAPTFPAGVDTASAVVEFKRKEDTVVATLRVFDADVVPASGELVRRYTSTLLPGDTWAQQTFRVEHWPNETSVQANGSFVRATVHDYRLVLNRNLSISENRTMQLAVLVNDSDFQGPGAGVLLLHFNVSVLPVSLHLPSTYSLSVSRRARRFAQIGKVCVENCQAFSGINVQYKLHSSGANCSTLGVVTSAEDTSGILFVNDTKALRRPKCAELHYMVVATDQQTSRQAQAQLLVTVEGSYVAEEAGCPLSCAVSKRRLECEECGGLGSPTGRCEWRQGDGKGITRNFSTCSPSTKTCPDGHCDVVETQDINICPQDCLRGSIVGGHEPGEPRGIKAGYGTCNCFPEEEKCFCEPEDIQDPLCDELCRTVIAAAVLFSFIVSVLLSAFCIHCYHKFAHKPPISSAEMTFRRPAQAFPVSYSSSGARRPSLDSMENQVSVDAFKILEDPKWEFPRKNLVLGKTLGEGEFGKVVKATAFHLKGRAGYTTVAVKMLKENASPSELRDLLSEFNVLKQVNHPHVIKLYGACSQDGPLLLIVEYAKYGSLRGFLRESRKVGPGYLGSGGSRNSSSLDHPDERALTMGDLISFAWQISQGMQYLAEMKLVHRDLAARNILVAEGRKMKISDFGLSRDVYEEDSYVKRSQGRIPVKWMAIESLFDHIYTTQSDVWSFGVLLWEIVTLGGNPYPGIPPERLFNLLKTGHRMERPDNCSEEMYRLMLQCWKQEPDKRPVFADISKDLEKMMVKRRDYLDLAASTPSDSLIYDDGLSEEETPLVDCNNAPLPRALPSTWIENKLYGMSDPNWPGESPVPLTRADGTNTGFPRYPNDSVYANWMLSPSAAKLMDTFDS
From the text: as §1

[16] = 500 nM, read-out: % Enzyme Activity (relative to DMSO controls)
[17] = 100 nM, read-out: % Enzyme Activity (relative to DMSO controls)

Sequence of 363 human kinases (including Aurora A/B/C) (Homo sapiens, UniProt Q8TDX7) (Q8TDX7 whole entry): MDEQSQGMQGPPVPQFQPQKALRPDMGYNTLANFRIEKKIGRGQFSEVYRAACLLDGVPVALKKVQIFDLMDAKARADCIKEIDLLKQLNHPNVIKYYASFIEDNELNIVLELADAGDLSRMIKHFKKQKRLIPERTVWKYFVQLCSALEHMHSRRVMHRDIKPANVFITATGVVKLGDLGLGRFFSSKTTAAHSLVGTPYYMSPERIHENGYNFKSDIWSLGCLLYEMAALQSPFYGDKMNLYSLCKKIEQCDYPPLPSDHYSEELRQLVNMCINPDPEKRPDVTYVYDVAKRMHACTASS

Compound	remaining activity at 0.5 µM [1, 16] [%]	remaining activity at 0.5 µM [2, 16] [%]	remaining activity at 0.5 µM [3, 16] [%]	remaining activity at 0.5 µM ([4]; CDK5/p25, [ATP] 50 µM) [%]	remaining activity at 0.5 µM ([4]; CDK5/p35, [ATP] 100 µM) [%]	remaining activity at 0.5 µM [5, 16] [%]	remaining activity at 0.5 µM [6, 16] [%]	remaining activity at 0.5 µM [7, 16] [%]	remaining activity at 0.5 µM [8, 16] [%]	remaining activity at 0.5 µM [9, 16] [%]	remaining activity at 0.5 µM [10, 16] [%]	remaining activity at 0.5 µM [11, 16] [%]	remaining activity at 0.5 µM [12, 16] [%]	remaining activity at 0.5 µM ([13]; CDK2/Cyclin A1, [ATP] 100 µM) [%]	remaining activity at 0.5 µM ([13]; CDK2/cyclin A, [ATP] 100 µM) [%]	remaining activity at 0.5 µM ([13]; CDK2/cyclin E, [ATP] 5 µM) [%]	remaining activity at 0.5 µM ([13]; CDK2/cyclin O, [ATP] 30 µM) [%]	remaining activity at 0.5 µM [14, 16] [%]	remaining activity at 0.5 µM [15, 16] [%]	also measured
O=C(c1cccc(Cl)c1F)N1CCN(Cc2cccc(Nc3nccs3)n2)CC1 [MK-8745]	109	23	81.3	88.5	94.6	102	94.5	92.2	89.7	83.5	19.7	105	65.1	79.6	85.1	86.3	90.6	108	84.5	% Enzyme Activity (relative to DMSO controls) ([1]; 500 nM): 107.51%; % Enzyme Activity (relative to DMSO controls) ([2]; 500 nM): 21.35%; % Enzyme Activity (relative to DMSO controls) ([3]; 500 nM): 77.61%; % Enzyme Activity (relative to DMSO controls) ([4]; CDK5/p25, [ATP] 50 µM): 87.84%; % Enzyme Activity (relative to DMSO controls) ([4]; CDK5/p35, [ATP] 100 µM): 93.11%; % Enzyme Activity (relative to DMSO controls) ([5]; 500 nM): 100.89%; % Enzyme Activity (relative to DMSO controls) ([6]; 500 nM): 94.23%; % Enzyme Activity (relative to DMSO controls) ([7]; 500 nM): 89.47%; % Enzyme Activity (relative to DMSO controls) ([8]; 500 nM): 88.70%; % Enzyme Activity (relative to DMSO controls) ([9]; 500 nM): 80.17%; % Enzyme Activity (relative to DMSO controls) ([10]; 500 nM): 19.23%; % Enzyme Activity (relative to DMSO controls) ([11]; 500 nM): 102.92%; % Enzyme Activity (relative to DMSO controls) ([12]; 500 nM): 64.18%; % Enzyme Activity (relative to DMSO controls) ([13]; CDK2/Cyclin A1, [ATP] 100 µM): 75.87%; % Enzyme Activity (relative to DMSO controls) ([13]; CDK2/cyclin A, [ATP] 100 µM): 83.95%; % Enzyme Activity (relative to DMSO controls) ([13]; CDK2/cyclin E, [ATP] 5 µM): 85.62%; % Enzyme Activity (relative to DMSO controls) ([13]; CDK2/cyclin O, [ATP] 30 µM): 90.54%; % Enzyme Activity (relative to DMSO controls) ([14]; 500 nM): 106.70%; % Enzyme Activity (relative to DMSO controls) ([15]; 500 nM): 84.03%
O=C(O)[C@]1(Cc2cccc(Nc3nccs3)n2)CC[C@@H](Oc2cccc(Cl)c2F)CC1 [MK-5108]	109	24.7	14.8	75.3	90	74	30.2	80.6	67.2	16.4	1.89	98.2	45.6	73.4	75.7	83.3	84.7	63.4	3.79	remaining activity at 0.1 µM [1, 17]: 98.5%; remaining activity at 0.1 µM [2, 17]: 32.5%; remaining activity at 0.1 µM [3, 17]: 49.5%; remaining activity at 0.1 µM ([4]; CDK5/p25, [ATP] 50 µM): 95.8%; remaining activity at 0.1 µM ([4]; CDK5/p35, [ATP] 100 µM): 95.7%; remaining activity at 0.1 µM [5, 17]: 101%; remaining activity at 0.1 µM [6, 17]: 69.8%; remaining activity at 0.1 µM [7, 17]: 98.3%; remaining activity at 0.1 µM [8, 17]: 86.7%; remaining activity at 0.1 µM [9, 17]: 41.2%; remaining activity at 0.1 µM [10, 17]: 7.97%; remaining activity at 0.1 µM [11, 17]: 97.1%; remaining activity at 0.1 µM [12, 17]: 76.9%; remaining activity at 0.1 µM ([13]; CDK2/Cyclin A1, [ATP] 100 µM): 100%; remaining activity at 0.1 µM ([13]; CDK2/cyclin A, [ATP] 100 µM): 97.7%; remaining activity at 0.1 µM ([13]; CDK2/cyclin E, [ATP] 5 µM): 90.3%; remaining activity at 0.1 µM ([13]; CDK2/cyclin O, [ATP] 30 µM): 88.6%; remaining activity at 0.1 µM [14, 17]: 91.9%; remaining activity at 0.1 µM [15, 17]: 17.4%
